Results: paper PMC11173422, “Substitution-Induced Mechanistic Switching in SNAr-Warheads for Cysteine Proteases” (Molecules, 2024)
Like-named read-outs stand apart in the source and are kept apart here. One block for each compound: values may come before it.

Legend:
[1] = Aqueous solubility observed in PAMPA set-up; format: physicochemical; settings: buffered aqueous solution pH 7.4, 5% DMSO
Method: acceptor (bottom) plate (Greiner, 655074). Measurement setup for direct spectroscopy consisted of UV- […]
sample volume, λ = 200–650 nm. […]
elution (0.7 mL/min). Injection volume was 100 µL. Areas of peaks in the chromatogram (detection-λ = 210 nm) were used to calculate the AUCs. Retention time and mass spectrum recorded in positive ionization mode were used to assign species. Analysis was performed using MestreNova. […]
donor plate. This was sealed (Greiner, 676070, Viewseal sealer). 400 µL of acceptor solution was applied to the acceptor plate. Incubation setup was assembled and left for 7 h. After this time, acceptor and reference solutions were analyzed.
The acceptor solutions of those were measured
P௔௣௣ = −(௏ವ ା௏ಲ )∗஺∗௧ eq. 6

[2] = Parallel artificial membrane permeability assay (PAMPA); settings: pH 7.4
Method: An artificial membrane consisting of phosphatidylcholine dissolved in n-dodecane was employed to control equilibration between two connected aqueous compartments, of which one contained the compound of interest. This model for compound permeation through a cell membrane was incubated, and the resulting concentration in the acceptor compartment was quantified spectroscopically.
A general literature-known principle was used [11]. Propranolol hydrochloride was sourced from Changzou Yabang Pharmaceutical (Fagron GmbH & Co. KG). Candesartan cilexetil was sourced as a chemical reference standard from the EDQM (catalogue code Y0001388).
Incubation setup consisted of donor (top) plate (Sigma Aldrich, MAIPNTR10), 5 µL artificial membrane
(1 % (w/v) L-α-phosphatidyl choline, Sigma Aldrich P3556, in n-dodecane, Sigma Aldrich 8205430100),
transparent measurement plate (Greiner UV-Star®, 655801), Tecan Spark 10M® well plate reader, 200 µL

[3] = cited from earlier work
[4] = biological target: T1, Rhodesain (TbCatL) (Trypanosoma brucei rhodesiense, UniProt Q95PM0); settings: lead compound, published data ref 17; cited from earlier work
T1 construct: stably transformed with the rhodesain ΔC gene cloned into the pPICZαA vector; made in house; host or cells: Pichia pastoris X-33 (pPICZαA, secreted into the culture supernatant)
T1 sequence (Q95PM0 entry or part of it): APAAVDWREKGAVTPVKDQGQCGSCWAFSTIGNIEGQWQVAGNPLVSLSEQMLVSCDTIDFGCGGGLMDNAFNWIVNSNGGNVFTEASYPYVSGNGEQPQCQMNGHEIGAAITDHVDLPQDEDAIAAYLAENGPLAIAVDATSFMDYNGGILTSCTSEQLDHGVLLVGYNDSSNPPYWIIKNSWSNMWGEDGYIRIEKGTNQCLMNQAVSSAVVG

[5] = tested on: Trypanosoma brucei; design: method as in PMID 32210166; settings: cell cultures, free acid; cited from earlier work
[6] = biological target: rhodesain (Trypanosoma brucei rhodesiense, UniProt Q95PM0); design: stably transformed with the rhodesain ΔC gene cloned into the pPICZαA vector; made in house; host or cells: Pichia pastoris X-33 (pPICZαA, secreted into the culture supernatant); method as in PMID 32210166, PMID 34378914; settings: cited from earlier work
Sequence of rhodesain (Q95PM0 entry or part of it): as above

SMILES: CC(C)C[C@H](NC(=O)[C@H](Cc1ccccc1)Nc1cc(F)c([N+](=O)[O-])cc1[N+](=O)[O-])C(=O)OC(C)(C)C [Compound 21]
aqueous solubility [1]: poor aqueous solubility
Papp at 7 h, 100 µM [2]: 3.4 ± 1.8 ×10⁻⁶ cm/s

Papp at 7 h, 100 µM [2]: 1.3 ± 0.2 ×10⁻⁶ cm/s
SMILES: CCOc1nc2cccc(C(=O)OC(C)OC(=O)OC3CCCCC3)c2n1Cc1ccc(-c2ccccc2-c2nnn[nH]2)cc1 (stereo not drawn) [Candesartan cilexetil, reference compound]
Lit. Papp ([3]; literature value ref 37): 0.6 [37] ×10^−6 cm/s

Papp at 7 h, 100 µM [2]: 9.9 ± 1 ×10⁻⁶ cm/s
SMILES: CC(C)NCC(O)COc1cccc2ccccc12 (stereo not drawn) [Propranolol, reference compound]
Lit. Papp ([3]; literature value ref 35, 36): 8–14 [35, 36] ×10^−6 cm/s

SMILES: CC(C)C[C@H](NC(=O)[C@H](Cc1ccccc1)Nc1cc([N+](=O)[O-])c([N+](=O)[O-])cc1F)C(=O)O [Compound I]
Ki [4]: 0.004 ± 0.0013 µM
EC50 [5]: 20 µM
Adduct with rhodesain in MALDI-TOF-MS [6]: no adduct could be detected
